We go through eleven molecules from ChEMBL document CHEMBL5236656, “The effect of diphenylethane side-chain substituents on dibenzocyclohexadiene formation and their inhibition of α-synuclein aggregation in vitro” (Bioorg Med Chem, 2023).

Each structure is given as a SMILES string.

The target of one assay is Alpha-synuclein (Homo sapiens) (UniProt P37840). As to the kind of experiment: Inhibition of alpha-Synuclein (unknown origin) aggregation assessed as aggregation by measuring ThT fluorescence at 500 uM incubated for 5 days by ThT fluorescence assay (reference value: 100%). The conditions noted are these: time 5.0 day. Details: scale not given: the % may be the effect or the level left.
For `Oc1ccc(CCc2ccc(O)c(O)c2)cc1O`, the Activity came to 8.1%.
On the same count and under the same terms, as for `CC1c2cc(O)c(O)cc2-c2c(ccc(O)c2O)C1C` (configuration not stated), the figure is 45.6%.
Still for that read-out and setting: under `C[C@@H]1Cc2cc(O)c(O)cc2-c2cc(O)c(O)cc2C[C@@H]1C` stands 13.6%; under `CC1(C)c2cc(O)c(O)cc2-c2cc(O)c(O)cc2C1(C)C`, 39.8%.
Same read-out and setting: as for `Oc1cc2c(cc1O)-c1c(ccc(O)c1O)CC2`, the figure is 10.7%; as for `Oc1cc2c(cc1O)-c1cc(O)c(O)cc1CC2`, 16.8%; as for `CC(c1ccc(O)c(O)c1)C(C)c1ccc(O)c(O)c1` (mixture of isomers), 6.1%.
Take `CC1(C)c2cc(O)c(O)cc2-c2c(ccc(O)c2O)C1(C)C`: the Activity worked out at 15.5%.
Same read-out and setting: under `CC(C)(c1ccc(O)c(O)c1)C(C)(C)c1ccc(O)c(O)c1` stands 9.2%; under `Oc1cc2ccc3cc(O)c(O)cc3c2cc1O`, 25.9%.
Regarding `Cc1c(C)c2cc(O)c(O)cc2c2cc(O)c(O)cc12`, the Activity worked out at 19.3%.

For another assay the target is unchanged. Put plainly: Inhibition of alpha-Synuclein (unknown origin) aggregation assessed as aggregation by measuring ThT fluorescence at 100 uM incubated for 5 days by ThT fluorescence assay (reference value: 100%). Details: scale not given: the % may be the effect or the level left. The note with it: time 5.0 day.
On to `Oc1ccc(CCc2ccc(O)c(O)c2)cc1O`, for which the Activity was 35.6%.
Same read-out and setting: under `CC1c2cc(O)c(O)cc2-c2c(ccc(O)c2O)C1C` (configuration not stated) stands 66.1%; under `C[C@@H]1Cc2cc(O)c(O)cc2-c2cc(O)c(O)cc2C[C@@H]1C`, 28.6%.
On to `CC1(C)c2cc(O)c(O)cc2-c2cc(O)c(O)cc2C1(C)C`, for which the Activity was 56.1%.
Still for that read-out and setting: under `Oc1cc2c(cc1O)-c1c(ccc(O)c1O)CC2` stands 27.8%; under `Oc1cc2c(cc1O)-c1cc(O)c(O)cc1CC2`, 22.2%.
On the same count and under the same terms, as for `CC(c1ccc(O)c(O)c1)C(C)c1ccc(O)c(O)c1` (mixture of isomers), the figure is 31.8%; as for `CC1(C)c2cc(O)c(O)cc2-c2c(ccc(O)c2O)C1(C)C`, 36.1%; as for `CC(C)(c1ccc(O)c(O)c1)C(C)(C)c1ccc(O)c(O)c1`, 44.4%.
Take `Oc1cc2ccc3cc(O)c(O)cc3c2cc1O`: the Activity was 33.6%.
Consider `Cc1c(C)c2cc(O)c(O)cc2c2cc(O)c(O)cc12`, for which the Activity came out at 47.3%.
